In patent EP4810052A2, “HCRHR2 SELECTIVE POLYPEPTIDES” (Gubra A/S, priority 2023, dated 2026):
Where two headings read alike, the source gives them in different places. Starred links: 1 amine or outer side, 2 acyl side, 3 side chain; linkers in the order of their positions; H or OH if unused. Non-standard residues stand in square brackets, D forms with d. Residues, ends and D or L forms follow the SMILES beside them. Groups on a side chain read outwards from the residue. *: point of attachment. C20 diacid = O=C(O)CCCCCCCCCCCCCCCCCCC(=O)*; γGlu = O=C(O)[C@H](CCC(=O)[*:2])N[*:1]; Nle = CCCC[C@H](N)C(=O)O; AEEA = NCCOCCOCC(=O)O; Aib = CC(C)(N)C(=O)O

Key:
PK in rats = format: in vivo; design: T½ / MRT: unit not given here; settings: Rat
Procedure: Lean male Sprague Dawley rats (RJHan:SD) were obtained from JanVier (JanVier Labs, France) at 7 weeks of age. The animals were pair housed until randomization under a 12/12 h dark-light cycle, light off at 3 PM. Room temperature was controlled to 22°C ± 1°C, with 60 % ± 20% humidity.
Animals had ad libitum access to regular rodent chow (Altromin 1324, Brogaarden, Denmark) and tap water.
After 2 weeks of acclimatization, the animals were single housed and randomized into treatment groups (n = 3 per group) based on body weight on study day -3. On study day 1, animals were dosed 50 nmol/kg IV and SC in combination of two peptides. Plasma samples were collected for PK analysis at times 0.17, 1, 3, 6, 24, 30, 48, 72 and 96 hours post dosing. Plasma samples were analyzed using LC-MSMS and PK parameters were estimated by Non-Compartmental Analysis (NCA).

[1] = pH 7.5
[2] = Chemical stability of purified peptides (RP-UHPLC main peak purity loss); format: physicochemical
In short: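 Peptides at about 1.0 mg/ml in 50 mM phosphate buffer pH 7.5, or pH-adjusted for the pH series, were incubated at 40 °C for 14 and 28 days. Main-peak purity was taken as main-peak area over total area by RP-UHPLC (UV 215 nm, C8, 50 °C). Purity loss was calculated versus T0.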

hCRHR1 = molecular target: T1, hCRHR1 (Homo sapiens, UniProt P34998); assay: HTRF cAMP assay, determination of hCRHR1 potency (peptide libraries 5 conc., purified peptides 11 conc.); format: cell-based; settings: read-out: hCRHR1 EC50
T1 sequence (P34998 24-415): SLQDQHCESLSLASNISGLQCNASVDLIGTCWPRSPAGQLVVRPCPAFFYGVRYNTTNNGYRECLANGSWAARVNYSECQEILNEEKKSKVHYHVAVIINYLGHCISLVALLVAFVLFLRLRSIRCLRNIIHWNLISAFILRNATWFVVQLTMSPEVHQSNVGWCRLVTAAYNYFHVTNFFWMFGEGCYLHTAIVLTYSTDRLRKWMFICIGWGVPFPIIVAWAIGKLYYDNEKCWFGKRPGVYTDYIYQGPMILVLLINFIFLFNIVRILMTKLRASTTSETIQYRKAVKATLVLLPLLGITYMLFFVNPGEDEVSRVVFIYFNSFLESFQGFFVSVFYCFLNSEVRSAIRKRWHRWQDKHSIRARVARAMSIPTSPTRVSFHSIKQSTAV
In short: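 CHO-K1 cells stably expressing human CRHR1, thawed from frozen stocks just before use, were stimulated in suspension with agonist peptides. cAMP was measured by HTRF competitive immunoassay (cryptate anti-cAMP antibody vs d2-cAMP).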

hCRHR2 = molecular target: T2, hCRHR2 (Homo sapiens, UniProt Q13324); assay: HTRF cAMP assay, determination of hCRHR2 potency (peptide libraries 5 conc., purified peptides 11 conc.); format: cell-based; settings: for EC50: read-out: hCRHR2 EC50
T2 sequence (Q13324 1-411): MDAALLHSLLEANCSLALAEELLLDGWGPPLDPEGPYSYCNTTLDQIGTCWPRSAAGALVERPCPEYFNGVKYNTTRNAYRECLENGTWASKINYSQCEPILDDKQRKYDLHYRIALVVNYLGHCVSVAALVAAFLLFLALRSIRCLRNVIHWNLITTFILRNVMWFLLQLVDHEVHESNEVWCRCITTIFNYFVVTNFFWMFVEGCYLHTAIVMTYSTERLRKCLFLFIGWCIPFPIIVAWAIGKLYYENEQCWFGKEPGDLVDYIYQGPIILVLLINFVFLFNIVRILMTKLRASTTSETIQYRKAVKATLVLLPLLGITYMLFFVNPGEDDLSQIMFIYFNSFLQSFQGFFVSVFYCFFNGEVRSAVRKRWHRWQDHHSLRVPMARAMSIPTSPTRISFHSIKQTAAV
In short: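 CHO-K1 cells stably expressing human CRHR2, thawed from frozen stocks just before use and run in suspension; cAMP measured by competitive HTRF immunoassay (cryptate anti-cAMP, d2-cAMP). Agonist peptides tested at 5 (libraries) or 11 (purified) concentrations; EC50 from sigmoid variable-slope nonlinear regression.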

[3] = Thioflavin T fibril formation assay of purified peptides; format: physicochemical; design: key: Amyloid fibril formation detected by an increase in ThT fluorescence was denoted with "Yes"; samples without increasing ThT fluorescence hence not forming amyloid fibrils were denoted "No"
In short: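 Compounds at 200 µM in 50 mM phosphate buffer at the stated pH values, or at 200 µM in semaglutide drug product adjusted to pH 7.4, with 4 µM ThT final. Fibrillation followed as ThT fluorescence (ex 450/em 480 nm) over 96 h at 40°C, with 5 min shaking at 700 rpm alternating with 5 min rest; triplicates.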

[4] = Dynamic Light Scattering (DLS) of peptide oligomerisation/particle formation; format: physicochemical; settings: average of three replica
Procedure: Samples were prepared by dissolving 800 nmol of each peptide in 400 µl 50 mM phosphate pH 8.0 to a concentration of 2000 µM (ca 10 mg/ml). After fully dissolution for 2 hours on a rocking table, samples were adjusted to pH 7.5 and filtrated through a 0.2 µm Whatman Anotop filter. Comparators were commercially available liraglutide drug product (Victoza®, Novo Nordisk) pH 8.2, and an aliquot of this drug product adjusted to pH 6.7. These samples were filtrated through a 0.02 µm Whatman Anotop filter.
Samples were pipetted as triplicate of 30 µl to an Aurora 384 well microtiter plate, which was centrifuged for 2 minutes at 2200 rpm and then sealed with a Thermo sealing tape 235307. DLS measurements were done in a Wyatt DynaPro platereader III with the following parameters:
The microtiter plate was incubated in a Grant-bio Thermo Shaker PHMP-4 at 40°C with 700 rpm continuous shaking before subsequent DLS measurements. Data analysis was done using Wyatt Dynamics software ver. 7.10.1.21.
Samples were prepared and measured as described in procedure. The hydrodynamic radii (Rh) and associated polydispersity (PD) resulting from cumulant analysis (assuming one species) are shown in the Table 8 as averages of three replica. T0 indicates the measurement at time zero after sample preparation; T5 indicates the measurements of five days of incubation as described above.

[5] = pH 7.5, 40°C, 14 days, first value of cell
[6] = pH 7.5, 40°C, 28 days, second value of cell
[7] = purified peptides, CHO-K1 cells stably expressing hCRHR1, cAMP HTRF
[8] = purified peptides, CHO-K1 cells stably expressing hCRHR2, cAMP HTRF
[9] = T0, time zero after sample preparation
[10] = T5, five days incubation at 40°C with continuous shaking

Row | Compound | MRT (PK in rats) | T½ (PK in rats) | Solubility pH 7.5, target conc. =10 mg/mL (measured mg/mL) [1] | Chemical stability at pH 7.5 after 14 days at 40°C (% degradation) [2, 5] | Chemical stability at pH 7.5 after 28 days at 40°C (% degradation) [2, 6] | EC50 (hCRHR1; [7]) | Selectivity ratio (hCRHR1/ hCRHR2) (hCRHR2; hCRHR1-EC50/hCRHR2-EC50) | EC50 (hCRHR2; [8]) | Fibrillation (pH 7.5) ([3]; pH 7.5, ThT assay) | Chemical stability at pH 7.5 after 14 days at 40°C (% degradation) ([2]; pH 7.5, 14 days, 40°C) | Chemical stability at pH 7.5 after 28 days at 40°C (% degradation) ([2]; pH 7.5, 28 days, 40°C) | EC50 (hCRHR1; Table 5, purified peptides) | Selectivity ratio (hCRHR1/ hCRHR2) (hCRHR2; Table 5) | EC50 (hCRHR2; Table 5, purified peptides) | Fibrillation (pH 7.5) ([3]; pH 7.5) | PD (%) [4, 9] | Rh (nm) [4, 9] | PD (%) [4, 10] | Rh (nm) [4, 10]
1 | CC[C@H](C)[C@H](N)C(=O)N[C@H](C(=O)N[C@@H](CC(C)C)C(=O)N[C@@H](CO)C(=O)N[C@@H](CC(C)C)C(=O)N[C@@H](CC(=O)O)C(=O)N[C@H](C(=O)N1CCC[C@H]1C(=O)N[C@H](C(=O)NCC(=O)N[C@@H](CC(C)C)C(=O)N[C@@H](CC(C)C)C(=O)N[C@@H](CCC(N)=O)C(=O)N[C@H](C(=O)N[C@@H](CC(C)C)C(=O)N[C@@H](CC(C)C)C(=O)N[C@@H](CCC(=O)O)C(=O)N[C@@H](CCC(N)=O)C(=O)N[C@@H](C)C(=O)N[C@@H](CCCNC(=N)N)C(=O)N[C@@H](C)C(=O)N[C@@H](CCCNC(=N)N)C(=O)N[C@@H](C)C(=O)N[C@@H](C)C(=O)N[C@@H](CCCNC(=N)N)C(=O)N[C@@H](CCC(=O)O)C(=O)N[C@@H](CCC(N)=O)C(=O)N[C@@H](C)C(=O)N[C@@H](CCCCNC(=O)COCCOCCNC(=O)COCCOCCNC(=O)CC[C@H](NC(=O)CC[C@H](NC(=O)CCCCCCCCCCCCCCCCCCC(=O)O)C(=O)O)C(=O)O)C(=O)N[C@H](C(=O)N[C@@H](CC(N)=O)C(=O)N[C@H](C(=O)N[C@@H](CCC(=O)O)C(=O)N[C@H](C(=O)N[C@@H](CC(C)C)C(=O)N[C@@H](C)C(=O)N[C@@H](CCC(=O)O)C(=O)N[C@H](C(N)=O)C(C)C)[C@@H](C)CC)C(C)C)[C@@H](C)O)[C@@H](C)CC)[C@@H](C)CC)C(C)C)C(C)C [SEQ ID NO: 14] (H-IVLSLDVPIGLLQILLEQARARAAREQAK([AEEA-AEEA-γGlu-γGlu-C20 diacid])TNVEILAEV-NH2) | 6.1 | 5.1 | 9.2 mg/mL | -0.3% | -1.2% | > 5000 nM | > 1000 | 5 nM | No | – | – | – | – | – | – | – | – | – | –
2 | CC[C@H](C)[C@H](N)C(=O)N[C@H](C(=O)N[C@@H](CC(C)C)C(=O)N[C@@H](CO)C(=O)N[C@@H](CC(C)C)C(=O)N[C@@H](CC(=O)O)C(=O)N[C@H](C(=O)N1CCC[C@H]1C(=O)N[C@H](C(=O)NCC(=O)N[C@@H](CC(C)C)C(=O)N[C@@H](CC(C)C)C(=O)N[C@@H](CCC(N)=O)C(=O)N[C@H](C(=O)N[C@@H](CC(C)C)C(=O)N[C@@H](CC(C)C)C(=O)N[C@@H](CCC(=O)O)C(=O)N[C@@H](CCC(N)=O)C(=O)N[C@@H](C)C(=O)N[C@@H](CCCNC(=N)N)C(=O)N[C@@H](C)C(=O)N[C@@H](CCCNC(=N)N)C(=O)N[C@@H](C)C(=O)N[C@@H](C)C(=O)N[C@@H](CCCNC(=N)N)C(=O)N[C@@H](CCC(=O)O)C(=O)N[C@@H](CCC(N)=O)C(=O)N[C@@H](C)C(=O)N[C@@H](CCCCNC(=O)COCCOCCNC(=O)COCCOCCNC(=O)CC[C@H](NC(=O)CC[C@H](NC(=O)CCCCCCCCCCCCCCCCCCC(=O)O)C(=O)O)C(=O)O)C(=O)N[C@H](C(=O)N[C@@H](CC(N)=O)C(=O)NC(C)(C)C(=O)N[C@@H](CCC(=O)O)C(=O)N[C@H](C(=O)N[C@@H](CC(C)C)C(=O)N[C@@H](C)C(=O)N[C@@H](CCC(=O)O)C(=O)N[C@H](C(N)=O)C(C)C)[C@@H](C)CC)[C@@H](C)O)[C@@H](C)CC)[C@@H](C)CC)C(C)C)C(C)C [SEQ ID NO: 15] (H-IVLSLDVPIGLLQILLEQARARAAREQAK([AEEA-AEEA-γGlu-γGlu-C20 diacid])TN[Aib]EILAEV-NH2) | 8 | 7.7 | 9.8 mg/mL | -1.0% | -1.2% | > 5000 nM | >2174 | 2.3 nM | No | – | – | – | – | – | – | – | – | – | –
3 | CCCC[C@H](NC(=O)[C@@H](NC(=O)[C@H](CCC(=O)O)NC(=O)C(C)(C)NC(=O)[C@H](CC(N)=O)NC(=O)[C@@H](NC(=O)[C@H](CCCCNC(=O)COCCOCCNC(=O)COCCOCCNC(=O)CC[C@H](NC(=O)CC[C@H](NC(=O)CCCCCCCCCCCCCCCCCCC(=O)O)C(=O)O)C(=O)O)NC(=O)[C@H](C)NC(=O)[C@H](CCC(N)=O)NC(=O)[C@H](CCC(=O)O)NC(=O)[C@H](CCCNC(=N)N)NC(=O)[C@H](C)NC(=O)[C@H](C)NC(=O)[C@H](CCCNC(=N)N)NC(=O)[C@H](C)NC(=O)[C@H](CCCNC(=N)N)NC(=O)[C@H](C)NC(=O)[C@H](CCC(N)=O)NC(=O)[C@H](CO)NC(=O)[C@H](CC(C)C)NC(=O)[C@H](CC(C)C)NC(=O)[C@@H](NC(=O)[C@H](CCC(N)=O)NC(=O)[C@H](CC(C)C)NC(=O)[C@H](CC(C)C)NC(=O)CNC(=O)[C@@H](NC(=O)[C@@H]1CCCN1C(=O)[C@@H](NC(=O)[C@H](CC(=O)O)NC(=O)[C@H](CC(C)C)NC(=O)[C@H](CO)NC(=O)[C@H](CC(C)C)NC(=O)[C@@H](NC(=O)[C@@H](N)[C@@H](C)CC)C(C)C)C(C)C)[C@@H](C)CC)[C@@H](C)CC)[C@@H](C)O)[C@@H](C)CC)C(=O)N[C@@H](C)C(=O)N[C@@H](CCC(=O)O)C(=O)N[C@H](C(N)=O)C(C)C [compound 234] (H-IVLSLDVPIGLLQILLSQARARAAREQAK([AEEA-AEEA-γGlu-γGlu-C20 diacid])TN[Aib]EI[Nle]AEV-NH2) | 5.1 | 4.1 | 11 mg/mL | – | – | – | – | – | – | -0.43% | -1.1% | > 5000 nM | >6250 | 0.8 nM | No | – | – | – | –
4 | Liraglutide pH 8.2 | – | – | – | – | – | – | – | – | – | – | – | – | – | – | – | 1.4% | 2.1 nm | 3.8% | 2.1 nm
5 | liraglutide | – | – | – | – | – | – | – | – | – | – | – | – | – | – | – | 6.0% | 2.5 nm | Multimodal | 5.6 nm
